Values joined by “and” are separate entries in the source; they are usually repeats but may differ in a detail not shown here. Identical values can stand only once. “Also recorded” adds a separate entry of the source. Like-named read-outs stand apart in the source and are kept apart here.

For data set [1], the system named is CI-M6PR. In words: Binding assay to biotinylated CI-M6PR (displacement from adsorbed pentamannose 6-phosphate). The conditions noted are these: for stability of affinity in buffer solution / binding affinity to CI-M6PR (in words): 20° C. As for the experimental part: The binding assays of the M6 Pa were performed using biotinylated CI-M6PR. Briefly, the CI-M6PR, purified on a phosphomannan-sepharose affinity column was biotinylated by N-hydroxysuccinimide biotin. The binding of the biotinylated CI-M6PR(CI-M6PRb) to pentamannose 6-phosphate (PMP) previously adsorbed on a microtitre plate was displaced by increasing concentrations of M6 Pa. The bound CI-M6PRb was then determined using the streptavidin/peroxidase couple and OPD substrate by optical density measurements. In control experiments the method was standardized by determining of the maximal concentration of the PMP adsorbed to the microtitre plate and the CI-M6PRb concentration required to saturate the adsorbed PMP [Jeanjean A et al., Bioorg Med Chem 14: 3575-82, 2006].
The binding assays of the cathD-AMFA-1 were performed using biotinylated CI-M6PR to the same protocol used for AMFA-1 binding assay, as detailed in section 1.2.

The format of data set [2] is in vitro ADME. As for the experimental part: (§1) Previous results have shown that a complex cathepsin D/anti-cathepsin D antibody was specifically internalised by CI-M6PR in normal human fibroblasts [Laurent-Matha V et al., J Cell Sci. 111: 2539-49, 1998]. The complex was here detected by immunofluorescence staining.
The binding affinity of AMFA-1, AMFA-2, AMFA-3 and AMFA-5 to CI-M6PR was determined at 20° C. (A) or in the presence of 75% human serum at 37° C. […] Methods are identical to 1.8 section.

The next data set is described as follows: FIG.15. The procedure:
Table printed on a drawing sheet, FIG.15
(A) and in human serum (B).
First reader's note: Stability (%) matches the CI-M6PR binding affinity remaining at the last time point of incubation in human serum in the plot printed below the table.

The subject of data set [3] is human normal fibroblast IMR-90 cell line. Kind of data set: Cytotoxicity on human normal fibroblast cell line. Format: cell-based. The settings on record: FIG. 14C.
In data set [4] the target is T1, CI-M6PR (Homo sapiens, UniProt P11717).
T1 construct: endogenous in cells; host or cells: normal human fibroblasts
Format: cell-based. The settings on record: pre-incubation with 10 mM. As for the experimental part:
(§2) As observed at light microscopy, 100 ng/mL neoIDUA was already internalised by MPSI fibroblasts from Scheie patient after 3 h incubation (FIG. 17 B-E). […] Glyceraldehyde 3-phosphate dehydrogenase (GAPDH) immunodetection was used as an internal control for total protein loading.

In a further data set the test system is MCF7. In words: Cytotoxicity on breast cancer cell line MCF7. Format: cell-based, human. The conditions noted are these: data not shown.
The test system of a further data set is MDA-MB-231. In words: Cytotoxicity on breast cancer cell line MDA-MB-231. Format: cell-based, human. The conditions noted are these: data not shown.
The target in data set [5] is T1, CI-M6PR. In words: Endocytosis of cathepsin D/anti-cathepsin D antibody complex via CI-M6PR in normal human fibroblasts (immunofluorescence). Format: cell-based. The conditions noted are these: cells pre-incubated with 10 mM; control cells 80%.
From the text: as §1

In another data set the test system is Hurler fibroblasts. In words: Viability of Hurler fibroblasts (MTT assay). Format: cell-based, human. The settings on record: 100-500 ng/mL. As for the experimental part:
Cell viability was evaluated by MTT assay [Maynadier et al. FASEB J, 22: 671-81, 2008].
A general note: Formazan colour is commonly taken as a measure of viable cells.

Data set [6] relates to MPSI fibroblasts from Scheie patient. In words: neoIDUA cell internalisation in MPSI fibroblasts. Format: cell-based, human. The procedure:
as §2

The subject of data set [7] is Hurler patient fibroblasts. In words: Secreted GAG in culture medium of Hurler patient fibroblasts (Blyscan kit). Format: cell-based, human.
The test system of the next data set is Homozygous IDUA −/− mice. In words: Therapeutic efficacy in mucopolysaccharidosis I (MPSI) mouse model, urinary GAG. Format: in vivo. The settings on record: 0.16 mg/kg body weight/week intravenously, 6 weeks; Mean ± SD. The procedure:
Homozygous IDUA −/− mice (6-8 week-old) were treated intravenously with vehicle alone (control) or with 0.16 mg neoIDUA/kg body weight/week for 6 weeks. The secreted GAG were assayed in urine after 6 injections and normalized to urine creatinine concentrations using methods previously described [Barbosa et al., Glycobiology Adv. Access 13: 647-53, 2003].

T1 sequence (P11717 41-2491): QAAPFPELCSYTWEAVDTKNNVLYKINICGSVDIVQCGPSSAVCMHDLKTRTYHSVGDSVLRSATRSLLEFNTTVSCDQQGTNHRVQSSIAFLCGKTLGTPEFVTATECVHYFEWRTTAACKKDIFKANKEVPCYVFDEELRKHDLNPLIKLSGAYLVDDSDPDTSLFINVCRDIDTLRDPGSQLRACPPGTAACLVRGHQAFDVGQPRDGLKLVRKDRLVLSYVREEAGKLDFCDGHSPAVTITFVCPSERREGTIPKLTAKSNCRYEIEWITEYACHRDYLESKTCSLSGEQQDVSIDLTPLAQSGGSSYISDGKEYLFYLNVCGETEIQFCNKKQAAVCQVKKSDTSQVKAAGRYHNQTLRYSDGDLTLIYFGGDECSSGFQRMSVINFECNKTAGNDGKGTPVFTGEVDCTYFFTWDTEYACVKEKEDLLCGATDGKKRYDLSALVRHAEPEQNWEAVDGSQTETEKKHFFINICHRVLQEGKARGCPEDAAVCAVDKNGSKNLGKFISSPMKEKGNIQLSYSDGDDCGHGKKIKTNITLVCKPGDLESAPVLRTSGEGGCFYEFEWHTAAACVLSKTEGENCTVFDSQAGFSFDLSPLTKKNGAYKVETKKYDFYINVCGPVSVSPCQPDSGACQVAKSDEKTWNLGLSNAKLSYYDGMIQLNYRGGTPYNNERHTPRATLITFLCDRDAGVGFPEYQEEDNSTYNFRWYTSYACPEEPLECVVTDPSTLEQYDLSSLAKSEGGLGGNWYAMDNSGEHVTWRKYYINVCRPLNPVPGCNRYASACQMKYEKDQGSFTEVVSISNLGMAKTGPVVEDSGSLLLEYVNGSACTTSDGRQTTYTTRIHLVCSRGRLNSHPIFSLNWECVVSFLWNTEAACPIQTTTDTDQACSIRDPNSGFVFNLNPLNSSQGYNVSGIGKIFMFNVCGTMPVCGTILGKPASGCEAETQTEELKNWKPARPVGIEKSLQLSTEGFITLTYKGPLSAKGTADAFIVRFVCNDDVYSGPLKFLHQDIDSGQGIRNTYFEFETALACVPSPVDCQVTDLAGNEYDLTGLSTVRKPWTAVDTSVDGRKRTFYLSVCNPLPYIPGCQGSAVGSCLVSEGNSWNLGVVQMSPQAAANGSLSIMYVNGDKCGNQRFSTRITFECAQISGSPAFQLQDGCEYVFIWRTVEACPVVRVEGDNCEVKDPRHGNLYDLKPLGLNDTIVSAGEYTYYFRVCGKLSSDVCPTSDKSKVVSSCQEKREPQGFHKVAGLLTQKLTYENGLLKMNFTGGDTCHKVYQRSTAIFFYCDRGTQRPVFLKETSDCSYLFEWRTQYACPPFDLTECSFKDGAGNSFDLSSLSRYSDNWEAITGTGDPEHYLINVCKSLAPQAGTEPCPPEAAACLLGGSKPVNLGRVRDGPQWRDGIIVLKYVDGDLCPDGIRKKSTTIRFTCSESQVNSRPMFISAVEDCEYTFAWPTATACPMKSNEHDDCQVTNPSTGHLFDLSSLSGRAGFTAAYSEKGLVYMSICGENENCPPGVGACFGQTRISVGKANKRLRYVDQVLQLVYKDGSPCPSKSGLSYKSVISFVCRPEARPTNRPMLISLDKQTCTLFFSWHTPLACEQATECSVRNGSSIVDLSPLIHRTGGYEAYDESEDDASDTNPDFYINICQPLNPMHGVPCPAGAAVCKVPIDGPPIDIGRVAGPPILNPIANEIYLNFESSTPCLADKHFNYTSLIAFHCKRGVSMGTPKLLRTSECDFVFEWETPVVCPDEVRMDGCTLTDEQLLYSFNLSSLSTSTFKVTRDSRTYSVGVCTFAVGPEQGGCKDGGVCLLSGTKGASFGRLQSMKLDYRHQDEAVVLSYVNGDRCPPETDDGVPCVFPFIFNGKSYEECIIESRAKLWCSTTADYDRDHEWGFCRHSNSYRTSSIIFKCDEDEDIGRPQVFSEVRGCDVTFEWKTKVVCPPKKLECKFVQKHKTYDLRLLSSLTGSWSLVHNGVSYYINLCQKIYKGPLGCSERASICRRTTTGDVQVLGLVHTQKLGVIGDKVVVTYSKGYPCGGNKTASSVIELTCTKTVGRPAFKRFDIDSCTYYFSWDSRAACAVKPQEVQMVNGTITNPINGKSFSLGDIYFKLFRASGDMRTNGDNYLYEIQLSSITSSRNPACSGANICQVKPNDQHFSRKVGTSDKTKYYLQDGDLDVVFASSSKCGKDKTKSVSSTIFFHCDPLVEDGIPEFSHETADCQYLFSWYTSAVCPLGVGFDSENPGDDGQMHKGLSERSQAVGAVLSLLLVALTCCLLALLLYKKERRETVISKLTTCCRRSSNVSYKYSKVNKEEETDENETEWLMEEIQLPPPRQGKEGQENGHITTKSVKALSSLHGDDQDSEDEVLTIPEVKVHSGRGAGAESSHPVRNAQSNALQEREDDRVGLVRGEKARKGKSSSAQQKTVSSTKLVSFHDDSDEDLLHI

As to “5-hydrazinocarbonylpentyl 6-phosphate-α-D-mannopyranoside disodium salt [M6P-hexanehydrazide, reference compound]”, in the data set on CI-M6PR [1], the “stability of affinity in buffer solution” value is recorded as “stable affinity”. In addition, the “decrease of affinity in human serum” value was roughly 50% in data set [2] (75% human serum at 37° C., after 7-8 h) and 84% in data set [2] (75% human serum at 37° C., after 16 h).
Consider “5-hydrazinocarbonylpentyl 6-phosphate-α-D-mannopyranoside disodium salt [M6P-hexanehydrazide]”, for which, in the data set “FIG.15”, the “Stability (%)” value stood at 16%.
Regarding `NNC(=O)CCCCCO[C@H]1O[C@H](CCP(=O)(O)O)[C@@H](O)[C@H](O)[C@@H]1O.[Na].[Na]` [AMFA-1, 5-hydrazinocarbonylpentyl 6-deoxy-6-dihydroxyphosphinylmethyl-α-D-mannopyranoside disodium salt], the “toxicity in human fibroblasts” value in data set [3] is “absence of toxicity”. The “binding affinity to CI-M6PR (in words)” value with CI-M6PR [1] is “high binding affinity”. In addition, the “binding affinity for CI-M6PR (comparison in words)” value in the data set on CI-M6PR [1] (FIG. 1, FIG. 14) was “identical to those of phosphonate 1 alone”. The “effect on uptake of neoIDUA by the cells” value on CI-M6PR [4] is reported as “totally prevented”. The “stability in human serum (in words)” value in data set [2] (75% (v/v) human serum, disodium salt) is “identical to those of phosphonate 1 alone; also recorded: stable”. For the same molecule, the “toxicity in human breast cancer cell line MCF7” value in the data set with MCF7 is listed as “no toxicity”. For the same molecule, the “toxicity in human breast cancer cell line MDA” value in the data set on MDA-MB-231 is recorded as “no toxicity”.
Consider `NNC(=O)CCn1cc(CO[C@H]2O[C@H](CCP(=O)(O)O)[C@@H](O)[C@H](O)[C@@H]2O)nn1.[Na].[Na]` [AMFA-2, Disodium salt of (Hydrazinocarbonylethyl)-1H-1,2,3-triazol-4-yl-methyl 6-Deoxy-6-dihydroxyphosphinylmethylene-α-D-mannopyranoside], for which the “Stability (%)” value in “FIG.15” is on record as 90%. Further, the “binding affinity to CI-M6PR (in words)” value with CI-M6PR [1] is given as “high binding affinity”. Moreover, the “stability in human serum (in words)” value in data set [2] is “stable”.
On the same counts, the results for `NOCCO[C@H]1O[C@H](CCP(=O)(O)O)[C@@H](O)[C@H](O)[C@@H]1O.[Na].[Na]` [AMFA-3, Disodium salt of 2-(aminoxy)ethyl 6-deoxy-6-dihydroxyphosphinylmethylene-α-D-mannopyranoside] are 91%, “high binding affinity” and “stable”.
The matching figures for `COC(=O)CCCCCO[C@H]1O[C@H](CC(C(=O)[O-])C(=O)[O-])[C@@H](O)[C@H](O)[C@@H]1O.[Na+].[Na+]` [AMFA-5, [5-methoxycarbonylpentyl 6,7-dideoxy-7-(carboxy)-α-D-manno-octopyranoside]uronate disodium salt]: 90%, “high binding affinity” and “stable”.
As for `O=C[C@@H](O)[C@@H](O)[C@H](O)[C@H](O)COP(=O)(O)O` [M6P, mannose 6-phosphate, reference compound], the “stability of affinity in buffer solution” value in the data set with CI-M6PR [1] is reported as “stable affinity”. The “effect on uptake of neoIDUA by the cells” value on CI-M6PR [4] was “strongly decreased”. Besides, the “decrease of affinity in human serum” value is roughly 50% in data set [2] (human) and 100% in [2] (human, 16 h). Also, at CI-M6PR [5], the “cells that internalized the cathepsin D/anti-cathepsin D antibody complex” value is on record as 30%.
Take `O=C[C@@H](O)[C@@H](O)[C@H](O)[C@H](O)COP(=O)(O)O` [M6P, mannose 6-phosphate]: the “Stability (%)” value in the data set “FIG.15” worked out at 0%.
On to “natural cathepsin D: human lysosomal enzyme, high affinity ligand for CI-M6PR with bisphosphorylated chains”, for which the Kd (commonly the constant that tells how readily two partners part at equilibrium) on CI-M6PR [1] (FIG. 16A, read-out: affinity for CI-M6PR (Kd)) was found to be 15 nM.

B1: IDUA-AMFA-1: recombinant α-L-iduronidase from baculovirus/Sf9 cells coupled to AMFA-1 (conjugate, UniProt P35475 28-653, looked up)
Alpha-L-iduronidase: APHLVHVDAARALWPLRRFWRSTGFCPPLPHSQADQYVLSWDQQLNLAYVGAVPHRGIKQVRTHWLLELVTTRGSTGRGLSYNFTHLDGYLDLLRENQLLPGFELMGSASGHFTDFEDKQQVFEWKDLVSSLARRYIGRYGLAHVSKWNFETWNEPDHHDFDNVSMTMQGFLNYYDACSEGLRAASPALRLGGPGDSFHTPPRSPLSWGLLRHCHDGTNFFTGEAGVRLDYISLHRKGARSSISILEQEKVVAQQIRQLFPKFADTPIYNDEADPLVGWSLPQPWRADVTYAAMVVKVIAQHQNLLLANTTSAFPYALLSNDNAFLSYHPHPFAQRTLTARFQVNNTRPPHVQLLRKPVLTAMGLLALLDEEQLWAEVSQAGTVLDSNHTVGVLASAHRPQGPADAWRAAVLIYASDDTRAHPNRSVAVTLRLRGVPPGPGLVYVTRYLDNGLCSPDGEWRRLGRPVFPTAEQFRRMRAAEDPVAAAPRPLPAGGRLTLRPALRLPSLLLVHVCARPEKPPGQVTRLRALPLTQGQLVLVWSDEHVGSKCLWTYEIQFSQDGKAYTPVSRKPSTFNLFVFSPDTGAVSGSYRVRALDYWARPGPFSDPVPYLEVPVPRGPPSPGNP
modifications: coupled to AMFA-1
Consider B1, for which the “toxicity on Hurler fibroblasts” value with Hurler fibroblasts is recorded as “not toxic”. Also, in the data set with Hurler fibroblasts (72 h), the cell viability result is on record as “slightly potentiate cell viability”. Besides, the “internalisation by MPSI fibroblasts (light microscopy)” value in [6] (100 ng/mL, 3 h incubation, Scheie patient) is “internalised”. Moreover, the “internalization in cell extracts (Western Blot)” value in data set [6] (after 24 h incubation) is “demonstrated”. Also, the “Secreted GAG concentrations in culture medium” value came out at 0.009 µg/mL in [7] (24 h treatment, control 0.018); 0.016 µg/mL in data set [7] (48 h treatment, control 0.022); 0.018 µg/mL in [7] (72 h treatment, control 0.032). In addition, the “reduction of GAG secretion” value in data set [7] (from 24 to 72 h) was “up to 50%”. For the same molecule, the “Secreted GAG concentrations/creatinine concentrations in urine” value in the data set on Homozygous IDUA −/− mice is 59.8 % control and 59.8 ± 9.0 % control.

The values are drawn from patent US8962573B2 (INSERM (Institut National de la Sante et de la Recherche …, priority 2009, dated 2015).
